# Data as given in patent US20180235934A1, “NORADRENERGIC DRUG TREATMENT OF OBSTRUCTIVE SLEEP APNEA” (Massachusetts Institute of Technology, priority 2015, published 2018).
# How the values were obtained:
# [1] = tested on: urethane-anesthetized rats; test: Hypoglossal nerve activity and hLTF under carbachol (cholinergic)-induced REM sleep-like state with episodic airway occlusion; assay type: in vivo, rat
# Text: (§1) The EMGs were amplified (CyberAmp 380, Axon Instruments, Union City), integrated (time constant 0.1 s, MA821 RSP Moving Averager, CWE) and sampled at 10 KHz into a Dell PC with LabView software (National Instruments, Austin, Tex.).
# A REM sleep-like state in urethane-anesthetized rats was induced by microinjection of the cholinergic agonist carbachol at unilateral dorsomedial pons^1,14 and was detected by the decrease of hypoglossal/GG EMG activity and the appearance of hippocampal theta discharge. The latter was recorded by using a parallel bipolar wire electrode inserted into the hippocampal CA1 region at the following stereotaxic coordinates: 3.7 mm caudal from Bregma, 2.2 mm lateral from midline, and depth of 2.4 mm from brain surface.
# (§2) Recurrent obstructive apneas during spontaneous breathing in urethane-anesthetized rats were simulated by applying 10 or 12 episodes of airway occlusion at one episode per min.
# (§3) All values are expressed as mean±SE.
# healthy subjects = conditions: cited from earlier work
# [2] = tested on: urethane-anesthetized spontaneously breathing rats
# Method: All experimental protocols were reviewed and approved by the responsible Committee on Animal Care in accordance with published guidelines. Experiments were performed on 45 male adult Sprague-Dawley rats (300-400 g, Charles River Laboratories, Wilmington, Mass.) under urethane anesthesia (initial dose 1.5 g/kg, i.p.; supplemental dose 1/10 of initial dose, i.p. or i.v. when necessary). The femoral vein and artery were cannulated for intravenous infusion and blood pressure monitoring, respectively. Rectal temperature was maintained at 36.5-37.5° C. with a thermostatic heating pad.
# After sub-laryngeal tracheal cannulation with a Y-shaped tracheal cannula, two isolated silver wires (O.D. 0.127 mm) were implanted into the genioglossus and diaphragm for EMG recording. The wire tips were exposed for 1 mm and separated by approximately 5 mm once inserted into the muscle. In some rats, the medial branch of the hypoglossal nerve (which innervates the GG and other tongue protrusion muscles) and phrenic nerve (which innervates the diaphragm) were isolated and severed. After the rat was mounted onto the stereotaxic frame, the central end of the nerve was exposed from the back of the neck (dorsal approach) and mounted onto parallel bipolar wire electrodes for recording. These rats were artificially ventilated with oxygen-enriched (40% O2) medical air and paralyzed with pancuronium bromide.
# as §1, with “Tex.). The recordings were stabilized for at least 1 hour before any data collection and experimental manipulations were performed.” for “Tex.).”
# For brain microinjections, an occipital craniostomy was performed to expose the brain surface. A glass micropipette (tip O.D. 10-20 μm) filled with chemical solution was inserted to the target structure according to its stereotaxic coordinates. Injections (25-50 nl per injection) were performed by applying pressure pulses to the micropipette and confirmed by the movement of the intrapipette solution meniscus. All chemicals were purchased from Sigma-Aldrich (Sigma, St. Louis, Mo.) and dissolved in ACSF at concentration of 10 mM. Stereotaxic coordinates of the A7 region: 2.3-2.6 mm from midline, 0-0.5 mm rostral from interaural level, 8.0-8.5 mm from lambda surface; A5 region: 0-0.5 mm caudal from interaural level, 2.2-2.7 mm from midline, 9.5-10 mm from lambda surface; dorsomedial pons: 1-1.5 mm from midline, 0.2-0.7 mm rostral from interaural level, 7.5-8.5 mm from lambda surface.
# Recurrent obstructive apneas during spontaneous breathing in urethane-anesthetized rats were simulated by applying 10 or 12 episodes of airway occlusion at one episode per min. Each episode of airway occlusion started from the end of an expiration (in spontaneous breathing rats as described in Tadjalli et al., J Neurosci 30, 16886-16895 (2010)^5) or lung deflation (in ventilated rats) and lasted 10-12 sec. […]
# The amplitudes of the integrated genioglossus EMG (or hypoglossal nerve discharge) and integrated diaphragm EMG (or phrenic nerve discharge) recordings in each respiratory cycle were measured and normalized to the control baseline values. All values are expressed as mean±SE. […]
# [3] = tested on: urethane-anesthetized rats; test: Hypoglossal nerve activity and hLTF under spontaneous REM sleep with episodic airway occlusion; assay type: in vivo, rat
# Method: as §2, §3
# Experiments were performed on 5 adult male rats (body weight 270-550 g) under urethane anesthesia, pancuronium paralysis and artificial ventilation. Unlike other anesthetics, urethane anesthesia retains the sleep-like alternations in brain state and in breathing pattern and chemosensitivity similar to those seen in natural sleep^58-59 (including state-dependent modulations of GG and abdominal respiratory-related activities^40), while also circumventing the highly fragmented natural sleep pattern in rodents^40. As shown in FIGS. 12A-12B, during periods of REM-like sleep (as indicated by increased hippocampal activity) hypoglossal nerve discharge was markedly depressed (by 44.8±9.1%, P<0.01). […] In addition, episodic end-expiratory airway occlusion (lasting 15 seconds each, 1 episode per minute; FIG. 12A, arrows) caused marked time-dependent increases in the amplitude of hypoglossal nerve discharge during each airway occlusion episode.
# [4] = tested on: TH-cre transgenic Sprague-Dawley rats; test: Episodic optogenetic stimulation of A7 neurons, HM activity and hLTF; conditions: 0.5 mg/kg i.v.
# [5] = clinically recommended dose range; cited from earlier work
# [6] = tested on: urethane-anesthetized rats; test: Hypoglossal amplitude and obstructive apnea-induced hLTF after yohimbine, focal at bilateral A7 and A5 regions or intravenous (no REM induction); assay type: in vivo, rat
# Text: Recurrent obstructive apneas during spontaneous breathing in urethane-anesthetized rats were simulated by applying 10 or 12 episodes of airway occlusion at one episode per min. […] All values are expressed as mean±SE.
# [7] = injection at bilateral A7 region
# [8] = intravenous 0.5 mg/kg, n=5, vs control n=12
structure (smiles),measurement,setting,value
C[N+](C)(C)CCOC(N)=O [carbachol],"respiratory-related hypoglossal activity, decrease on transition to REM-like sleep","[1]; focal carbachol injection at pontine dorsomedial reticular formation, vagi-intact rats",~39%
CNCCCN1c2ccccc2CCc2ccccc21 [desipramine],tonic component of GG activity,"healthy subjects; healthy subjects, non-REM sleep",increased the tonic component of GG activity
same,inspiratory-phasic component of GG activity,healthy subjects; healthy subjects,failed to increase the inspiratory-phasic component of GG activity
same,effect on REM sleep,healthy subjects; in vivo,inhibit REM sleep
Clc1cccc(Cl)c1N=C1NCCN1 [clonidine],tonic component of GG activity recruited during airway obstruction,[2]; application at bilateral A7 or A5 region,strongly suppressed
same,baseline genioglossus activity,"[2]; injection at bilateral A5 region, n=6",not significantly reduced
same,facilitation of hypoglossal activity during airway occlusion,[2]; [7],markedly attenuated
same,hypoglossal long-term facilitation,[2]; [7],totally abolished
same,"integrated genioglossus EMG amplitude, reduction from pre-injection baseline",[2]; injection at bilateral A7 region (~50 nl at 5 mM per site),~12%
"CC1c2ccccc2CN1CC1=NCCN1 (stereo not shown) [BRL44408, 2-[2H-(1-Methyl-1,3-dihydroisoindole)methyl]-4,5-dihydroimidazole]",hypoglossal discharge (baseline) during spontaneous REM-like sleep,"[3]; 0.2 mg/kg i.v., 5 rats",effectively restored the hypoglossal discharge to normal baseline level
same,"hypoglossal activity before, during or after episodic airway occlusion","[3]; 0.2 mg/kg i.v., throughout spontaneous REM sleep",at or above normal baseline level
COc1cc2nc(N3CCN(C(=O)c4ccco4)CC3)nc(N)c2cc1OC [prazosin],HM activity,[4],decreased
same,hLTF after episodic optogenetic stimulation of A7 neurons,[4],no longer resulted in hLTF
"COC(=O)[C@@H]1[C@H]2C[C@H]3c4[nH]c5ccccc5c4CCN3C[C@@H]2CC[C@@H]1O [yohimbine, Yohimbine]",baseline HM activity,"[1]; systemic yohimbine 0.5-1.0 mg/kg i.v., cholinergic-induced REM sleep, n=7, P<0.01",rise of baseline HM activity above the control level
same,obstructive apnea-induced hLTF,"[1]; systemic yohimbine 0.5-1.0 mg/kg i.v., cholinergic-induced REM sleep, up to 20 min after episodic obstructive apnea",potently reversed the blunting of obstructive apnea-induced hLTF
same,dose that effectively rescued first- and second-line motor defenses against OSA under REM sleep,"[3]; i.v., rats, REM sleep",> 0.25 mg/kg
same,effect on REM sleep,[5],does not disrupt REM sleep
same,weight gain,[5],does not disrupt REM sleep or cause weight gain
same,baseline HM activity,"[6]; focal injection at bilateral A7 and A5 regions (50 nl at 2.5 mM per site), n=5, P<0.01",significant increase of baseline HM activity
same,hLTF during obstructive apnea episodes and up to 20 min afterwards,"[6]; focal injection at bilateral A7 and A5 regions, P<0.05",enhancement of hLTF
same,baseline hypoglossal amplitude before episodic airway occlusion,[6]; [8],augmented baseline hypoglossal amplitude
same,hypoglossal amplitude during first and last airway occlusion episodes and 5 and 20 min after,[6]; [8],facilitated hypoglossal amplitude
